In publication PMC3958426, “Prolonged Calcitonin Receptor Signaling by Salmon, but Not Human Calcitonin, Reveals Ligand Bias” (PLoS ONE, 2014):

Experiments:
amylin receptor (AMY-R) = conditions: isolated membranes; cited from earlier work
Source text: (§1) The calcitonins (CT) are a group of evolutionary conserved 32 amino acid peptide hormones, which have been isolated from many different species over the last 50 years and divided into several distinct groups based on structure and sequence. The calcitonins bind to the calcitonin receptor (CT(a)R), which belongs to the class B subfamily of G-protein coupled receptors (GPCRs), [3].

CT(a)R = conditions: live cells; cited from earlier work
Source text: as §1, with “[3]. […] […].” for “[3].”

[1] = target: T1, human calcitonin receptor (CT(a)R), U2OS CALCR membranes (Homo sapiens, UniProt P30988); assay: Ligand association on isolated U2OS CALCR membranes; assay type: binding; conditions: ^125I ligand 0.25 nM; for association constant KON, membranes: room temperature (∼22°C), 20 mM HEPES, 1 mM CaCl2, 5 mM MgCl2, nonspecific with 250 nM unlabeled sCT, triplicate, mean ± SEM; for time to plateau of specific binding, membranes: ∼22°C
T1 construct: host or cells: U2OS (PathHunter U2OS CALCR β-arrestin cell line)
T1 sequence (P30988 25-474): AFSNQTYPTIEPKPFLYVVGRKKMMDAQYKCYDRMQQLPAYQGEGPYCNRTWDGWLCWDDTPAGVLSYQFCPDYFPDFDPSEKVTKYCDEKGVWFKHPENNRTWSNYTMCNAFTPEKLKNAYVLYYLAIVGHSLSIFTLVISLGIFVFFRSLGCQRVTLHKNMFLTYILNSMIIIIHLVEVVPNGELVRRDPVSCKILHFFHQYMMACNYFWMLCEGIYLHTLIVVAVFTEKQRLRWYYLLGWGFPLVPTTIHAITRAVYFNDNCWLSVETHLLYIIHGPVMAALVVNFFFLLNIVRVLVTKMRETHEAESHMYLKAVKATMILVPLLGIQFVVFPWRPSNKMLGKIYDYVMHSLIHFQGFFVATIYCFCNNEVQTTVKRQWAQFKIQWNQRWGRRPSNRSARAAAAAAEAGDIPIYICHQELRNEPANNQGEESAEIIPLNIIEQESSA
Experimental: The binding kinetics of ^125I-(Tyr 22)-sCT and ^125I-(Tyr 12)-hCT were assessed using isolated membranes from Cos-7 CT(a)R or U2OS CALCR. Concentration of radio-labeled ligand was 0.25 nM unless otherwise specified. Membranes were isolated and purified as previously described. Membrane protein content was determined with a NanoDrop 1000 (Thermo Scientific). In general, radio-labeled ligand and membrane were mixed in binding buffer (20 mM HEPES, 1 mM CaCl2, 5 mM MgCl2) with complete protease inhibitor (11836170001, Roche), each condition in triplicate, in 96-well plates and incubation at room temperature (∼22°C) with shaking. Ligand association: The radio-labeled ligand was incubated with the membrane and the membrane-bound radioactivity was determined as described above at specific time points 2½, 5, 10, 20, 40, 80 and 160 min. Nonspecific binding was determined at each time point with co-incubation of 250 nM unlabeled sCT. Ligand dissociation: The radio-labeled ligand and membrane were incubated for one hour to allow ligand-receptor saturation. Dissociation was monitored following the addition of 250 nM unlabeled sCT to prevent rebinding of dissociated radio-ligand. The membrane-bound radioactivity (total binding) was determined at time 0, 1, 2, 4, 6, 24, 48 and 72 h after the initiation of dissociation. Competitive ligand binding: The radio-labeled ligand and membrane were co-incubated with one of seven different concentrations of corresponding unlabeled ligand (1 μM sCT or hCT with a fivefold dilution row) for one hour. Post incubation sample extraction: The binding mixtures were transferred to 1.5 ml Eppendorf tubes and centrifuged at 17,000 g (4°C for 5 min). Membrane pellets were washed with cold binding buffer, resuspended and then re-centrifuged (17,000 g, 4°C for 5 min).
(§2) Samples, resuspended pellet or solubilized cell membrane, were transferred to borosilicate tubes and bound radioactivity was measured using a 1470 Wallac Wizard Gamma Counter.

[2] = target: T2, human calcitonin receptor (CT(a)R), U2OS CALCR cells (Homo sapiens, UniProt P30988); assay: Ligand association on live U2OS CALCR cells; assay type: binding; conditions: 37°C
T2 construct: host or cells: U2OS (PathHunter U2OS CALCR β-arrestin cell line)
T2 sequence (P30988 25-474): T1 sequence (P30988 25-474)
Experimental: 15,000 U2OS CALCR cells/well were seeded into 96 well culture plates the day prior to the experiment. All cell based binding kinetics studies were made identical in terms of ‘hot’ and ‘cold’ ligand concentrations and incubation times to match membrane studies. Post incubation sample extraction: The binding mixture and cells were mixed in culture medium in triplicates in 96-well plates and incubated at 37°C. At the end of the incubation, the binding mixture was removed and cells were washed three times in PBS to remove residual unbound ligand. 200 μL 0.5 M NaOH was added to each well and cells were allowed to solubilize for at least 20 min.
as §2

[3] = cited from earlier work
Source text: as §1

| association constant KON, membranes [1] | time to plateau of specific binding, membranes [1] | peak binding, live cells, ^125I-hCT vs ^125I-sCT [2] | specific binding after 180 min compared to 20 min, live cells ([2]; ^125I ligand 0.25 nM) | time of maximal specific binding, live cells ([2]; ^125I ligand 0.25 nM) | time to plateau of specific binding, live cells ([2]; ^125I ligand 0.25 nM) | association constant KON, live cells ([2]; ^125I ligand 0.25 nM, triplicate, mean ± SEM) | Substance | dissociation from the amylin receptor (amylin receptor (AMY-R)) | reversibility of binding (CT(a)R) | duration of biological activity in vivo [3] |
| --- | --- | --- | --- | --- | --- | --- | --- | --- | --- | --- |
| – | – | – | – | – | – | – | amylin (KCNTATCATQRLANFLVHSSNNFGAILSSTNVGSNTY; Islet amyloid polypeptide; UniProt P10997 34-70, looked up) | fully reversible | – | – |
| 2.1±0.3×10^9 M^−1min^−1 | ~8 min | similar | < 20% | 20 min | – | – | ^125I-(Tyr12)-hCT [^125I-hCT] | – | fully reversible | – |
| 3.1±0.5×10^9 M^−1min^−1 | ~8 min | similar | – | – | 180 min | 1.1±0.1×10^8 M^−1min^−1 | ^125I-(Tyr22)-sCT [^125I-sCT] | – | – | – |
| – | – | – | – | – | – | – | davalintide | dissociated very slowly | – | prolonged biological activity in vivo |
